# According to patent US10758468B2, “Solubilizer for cosmetic preparations” (Symrise AG, priority 2010, dated 2020):
# Assay: Assessment of turbidity (transparency) of compositions at production and after 3 months storage
# Details: water to 100; for Assessment of turbidity: Storage at 5° C. / Assessment of turbidity: Storage at 40° C.: after 3 months
# [1] = 0.10 wt. % bisabolol, 2.00 Solubilizer U.53787M, 0.50 pentane-1,2-diol
# [2] = 0.10 wt. % bisabolol, 2.00 Solubilizer U.53787M, 1.00 1,2-propylene glycol
# [3] = 0.10 wt. % bisabolol, 2.00 Solubilizer U.53787M, 2.50 pentane-1,2-diol
# [4] = 0.10 wt. % bisabolol, 2.00 Solubilizer U.53787M, 3.00 1,2-propylene glycol
# [5] = 0.10 wt. % bisabolol, 2.00 Solubilizer U.53787M, 4.00 glycerol
# [6] = 0.20 wt. % bisabolol, 2.00 Solubilizer A, 5.00 glycerol
# [7] = 0.40 wt. % menthyl lactate, 2.00 Solubilizer U.53787M, 5.00 glycerol
# [8] = 0.40 wt. % menthyl lactate, 2.00 Solubilizer U.53787M, 5.00 pentane-1,2-diol
# [9] = 0.50 wt. % menthyl lactate, 2.00 Solubilizer B, 5.00 glycerol
# Method: The transparency (clarity) of the compositions was determined after 3 months at the constant storage temperature stated in each case.
compound,measurement,setting,value
CC(C)=CCC[C@](C)(O)C1CC=C(C)CC1 (stereo partly shown) [Bisabolol],Assessment of turbidity: Production at 25°,[1],clear
same,Assessment of turbidity: Production at 25°,[2],clear
same,Assessment of turbidity: Production at 25°,[3],clear
same,Assessment of turbidity: Production at 25°,[4],clear
same,Assessment of turbidity: Production at 25°,[5],clear
same,Assessment of turbidity: Production at 25°,[6],clear
same,Assessment of turbidity: Storage at 5° C.,[1],clear
same,Assessment of turbidity: Storage at 40° C.,[1],clear
same,Assessment of turbidity: Storage at 5° C.,[2],clear
same,Assessment of turbidity: Storage at 40° C.,[2],clear
same,Assessment of turbidity: Storage at 5° C.,[3],clear
same,Assessment of turbidity: Storage at 40° C.,[3],clear
same,Assessment of turbidity: Storage at 5° C.,[4],clear
same,Assessment of turbidity: Storage at 40° C.,[4],clear
same,Assessment of turbidity: Storage at 5° C.,[5],clear
same,Assessment of turbidity: Storage at 40° C.,[5],clear
same,Assessment of turbidity: Storage at 5° C.,[6],clear
same,Assessment of turbidity: Storage at 40° C.,[6],clear
"CC(C)(C)C(=O)C(Oc1ccc(Cl)cc1)n1ccnc1 (stereo not shown) [Crinipan® AD, climbazole]",Amount of organic substance incorporated with the composition remaining clear and stable,"framework formulation: 2.00 wt. % Solubilizer U.53787M, 5.00 glycerol, production at 25°, storage 3 months at 5° C. and 40° C.",0.10 wt. %
"CC1CCC(C(C)C)C(OC(=O)C(C)O)C1 (stereo not shown) [Frescolat ® ML, menthyl lactate]",Assessment of turbidity: Production at 25°,[7],clear
same,Assessment of turbidity: Production at 25°,[8],clear
same,Assessment of turbidity: Production at 25°,[9],clear
same,Assessment of turbidity: Storage at 5° C.,[7],clear
same,Assessment of turbidity: Storage at 40° C.,[7],clear
same,Assessment of turbidity: Storage at 5° C.,[8],clear
same,Assessment of turbidity: Storage at 40° C.,[8],clear
same,Assessment of turbidity: Storage at 5° C.,[9],clear
same,Assessment of turbidity: Storage at 40° C.,[9],clear
